Source: the supplement of paper PMC10307832

Assays:
Assay in all cases: relative viability (nuclei count vs DMSO), 5 days (fraction); higher = more cells survive
Carfilzomib + Bortezomib = compound: CC(C)C[C@H](NC(=O)[C@H](CCc1ccccc1)NC(=O)CN1CCOCC1)C(=O)N[C@@H](Cc1ccccc1)C(=O)N[C@@H](CC(C)C)C(=O)[C@@]1(C)CO1 [Carfilzomib] + CC(C)C[C@H](NC(=O)[C@H](Cc1ccccc1)NC(=O)c1cnccn1)B(O)O [Bortezomib] (partner 0.002 µM)
How it was run: (§1)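 Relative viability was taken as the ratio of nuclei in treated wells to nuclei in vehicle wells. Lung cancer cell lines in 1536-well plates received compounds by pin tool one day after seeding, either one drug alone or a fixed anchor-drug dose plus five library-drug doses (not always all listed) in √10 steps. Nuclei were counted on 4× images after 5 days of treatment, and values are medians of duplicate plates.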

Carfilzomib + Tozasertib = compound: CC(C)C[C@H](NC(=O)[C@H](CCc1ccccc1)NC(=O)CN1CCOCC1)C(=O)N[C@@H](Cc1ccccc1)C(=O)N[C@@H](CC(C)C)C(=O)[C@@]1(C)CO1 [Carfilzomib] + Cc1cc(Nc2cc(N3CCN(C)CC3)nc(Sc3ccc(NC(=O)C4CC4)cc3)n2)n[nH]1 [Tozasertib] (partner 0.1 µM)
How it was run: as §1

Crizotinib + Tozasertib = compound: C[C@@H](Oc1cc(-c2cnn(C3CCNCC3)c2)cnc1N)c1c(Cl)ccc(F)c1Cl [Crizotinib] + Cc1cc(Nc2cc(N3CCN(C)CC3)nc(Sc3ccc(NC(=O)C4CC4)cc3)n2)n[nH]1 [Tozasertib] (partner 0.1 µM)
How it was run: as §1

Olaparib + Bortezomib = compound: O=C(c1cc(Cc2n[nH]c(=O)c3ccccc23)ccc1F)N1CCN(C(=O)C2CC2)CC1 [Olaparib] + CC(C)C[C@H](NC(=O)[C@H](Cc1ccccc1)NC(=O)c1cnccn1)B(O)O [Bortezomib] (partner 0.002 µM)
How it was run: as §1

Row | Cell Line | relative viability (Carfilzomib + Bortezomib; first compound 0.001 µM) | relative viability (Carfilzomib + Bortezomib; first compound 0.003162 µM) | relative viability (Carfilzomib + Bortezomib; first compound 0.01 µM) | relative viability (Carfilzomib + Bortezomib; first compound 0.03162 µM) | relative viability (Carfilzomib + Bortezomib; first compound 0.1 µM) | relative viability (Carfilzomib + Tozasertib; first compound 0.001 µM) | relative viability (Carfilzomib + Tozasertib; first compound 0.003162 µM) | relative viability (Carfilzomib + Tozasertib; first compound 0.01 µM) | relative viability (Carfilzomib + Tozasertib; first compound 0.03162 µM) | relative viability (Carfilzomib + Tozasertib; first compound 0.1 µM) | relative viability (Crizotinib + Tozasertib; first compound 0.01 µM) | relative viability (Crizotinib + Tozasertib; first compound 0.03162 µM) | relative viability (Crizotinib + Tozasertib; first compound 0.1 µM) | relative viability (Crizotinib + Tozasertib; first compound 0.3162 µM) | relative viability (Crizotinib + Tozasertib; first compound 1 µM) | relative viability (Olaparib + Bortezomib; first compound 0.08 µM) | relative viability (Olaparib + Bortezomib; first compound 0.253 µM) | relative viability (Olaparib + Bortezomib; first compound 2.53 µM) | relative viability (Olaparib + Bortezomib; first compound 8 µM)
1 | LU99A | 1.09 | 1.31 | 1.05 | 0.459 | 0.216 | 0.282 | 0.286 | 0.326 | 0.306 | 0.123 | 0.231 | 0.27 | 0.256 | 0.222 | 0.241 | 1.13 | 0.96 | 0.726 | 0.626
2 | NCI-H358 |  |  |  |  |  | 0.0998 | 0.0949 | 0.127 | 0.057 | 0.0759 | 0.0979 | 0.105 | 0.118 | 0.0922 | 0.0946 |  |  |  | 
3 | NCI-H522 |  |  |  |  |  | 0.491 | 0.6 | 0.653 | 0.349 | 0.346 | 0.509 | 0.492 | 0.503 | 0.596 | 0.471 |  |  |  | 
4 | NCI-H1299 | 0.997 | 1.09 | 1.02 | 0.986 | 0.156 |  |  |  |  |  |  |  |  |  |  | 1.07 | 0.97 | 1.04 | 0.968
5 | NCI-H1395 |  |  |  |  |  | 0.746 | 0.743 | 0.696 | 0.505 | 0.304 | 0.67 | 0.734 | 0.764 | 0.738 | 0.74 |  |  |  | 
6 | NCI-H1563 | 0.815 | 0.985 | 0.836 | 0.513 | 0.477 |  |  |  |  |  |  |  |  |  |  | 0.876 | 0.881 | 0.896 | 0.692
7 | NCI-H1623 |  |  |  |  |  | 0.404 | 0.443 | 0.515 | 0.434 | 0.294 | 0.355 | 0.399 | 0.415 | 0.395 | 0.43 |  |  |  | 
8 | NCI-H1648 |  |  |  |  |  |  | 0.556 | 0.495 | 0.37 | 0.248 | 0.548 | 0.599 |  | 0.497 | 0.47 |  |  |  | 
9 | NCI-H1703 | 0.216 | 0.167 | 0.156 | 0.0967 | 0.129 |  |  |  |  |  |  |  |  |  |  | 0.367 | 0.301 | 0.445 | 0.417
10 | NCI-H1792 | 0.962 | 1 | 0.919 | 0.979 | 0.559 |  |  |  |  |  |  |  |  |  |  | 1.02 | 0.735 | 0.804 | 0.784
11 | NCI-H1944 |  |  |  |  |  | 0.248 | 0.236 | 0.253 | 0.265 | 0.16 | 0.254 | 0.248 | 0.252 | 0.247 | 0.254 |  |  |  | 
12 | NCI-H2170 |  |  |  |  |  | 0.751 | 0.73 | 0.749 | 0.659 | 0.173 | 0.683 | 0.793 | 0.669 | 0.792 | 0.681 |  |  |  | 
13 | NCI-H2342 |  |  |  |  |  | 0.495 | 0.473 | 0.579 | 0.543 | 0.385 | 0.489 | 0.492 | 0.584 | 0.524 | 0.485 |  |  |  | 
14 | SK-MES-1 |  |  |  |  |  | 0.939 | 1.07 | 0.998 | 0.725 | 0.136 | 0.844 | 0.905 | 0.87 | 0.808 | 0.845 |  |  |  | 
15 | SW 900 |  |  |  |  |  | 0.508 | 0.682 | 0.142 | 0.149 | 0.164 | 0.657 | 0.541 | 0.512 | 0.52 | 0.613 |  |  |  | 
